Assays:
[1] = Stability test in liver microsomes (mouse); assay type: in vitro ADME; conditions: mouse liver microsomes 0.5 mg/mL, 1 μM compound
Method: (§1) Both male CD-1 mouse pooled liver microsomes and male SD rat pooled liver microsomes were purchased from BioreclamationIVT Corporation, USA.
(§2) The test compound stock solution was diluted with an organic solvent (usually a mixture of acetonitrile, methanol and water with various ratios, depending on the solubility of the compound, if necessary, 1 N hydrochloric acid or 1 N sodium hydroxide would be added to facilitate solubilization) to the 0.1 mM (the final concentration of the compound in the reaction system was 1 μM) and the concentration percentage of the organic solvents in the incubation system no more than 1% (wherein the percentage of DMSO was required to be no more than 0.1%). An appropriate amount of 100 mM NADP, 500 mM G-6-P and 100 Unit/mL G-6-PDH were mixed and diluted with ultrapure water (the final system contains 1 mM NADP, 5 mM G-6-P and 1 Unit/mL G-6-PDH), pre-incubated in a 37° C. water bath for 10 minutes and then placed on ice for use as a NADPH regeneration solution. 20 mg/mL liver microsomes solution and 200 mM phosphate buffer were mixed, and diluted with ultrapure water to give a liver microsomes solution containing 2.5 mg/mL liver microsomes (the final concentration of the reaction system is 0.5 mg/mL) and 50 mM phosphate buffer. The diluted liver microsomes solution was mixed with 0.1 mM compound solution, a mixture of 100 mM EDTA, 300 mM MgCl2 solution, 200 mM phosphate buffer (the final system was 3 mM MgCl2, 1 mM EDTA and 50 mM phosphate buffer) and water in an appropriate volume was added. Finally, the NADPH regeneration solution was added, then the reaction solution was placed in a 37° C. water bath to start the reaction (the reaction time was 30 minutes), and the reaction was stopped by adding the ice-cold acetonitrile reaction stopping solution containing the internal standard. The 0-minute sample was not incubated in a 37° C. water bath, and its difference from the 30-minute sample further lies in that the ice-cold acetonitrile reaction stopping solution containing the internal standard was added first, and then the NADPH regeneration solution was added. The sample added with the reaction stopping internal standard solution was vortexed and mixed well, and then centrifuged at 4400 rpm for 10 minutes. The supernatant was taken and diluted ten times with 50% methanol for LC-MS/MS analysis.
(§3) LC-MS/MS was used to determine the concentration of the compound in the sample. The percentage of the remaining compound after 30 minutes of incubation comparing with that in the 0-minute sample was calculated using the peak area ratio of the compound to the internal standard as an indicator, to evaluate the metabolic stability of the compound.

[2] = Stability test in liver microsomes (rat); assay type: in vitro ADME; conditions: rat liver microsomes 0.5 mg/mL, 1 μM compound
Method: as §1, §2, §3

BTK recombinant protein = BTK recombinant protein (Homo sapiens (Human), UniProt Q06187); experiment: Determination of biochemical BTK (Z'-LYTE kinase assay); conditions: 32 μM ATP
Sequence of BTK recombinant protein (Q06187 whole entry): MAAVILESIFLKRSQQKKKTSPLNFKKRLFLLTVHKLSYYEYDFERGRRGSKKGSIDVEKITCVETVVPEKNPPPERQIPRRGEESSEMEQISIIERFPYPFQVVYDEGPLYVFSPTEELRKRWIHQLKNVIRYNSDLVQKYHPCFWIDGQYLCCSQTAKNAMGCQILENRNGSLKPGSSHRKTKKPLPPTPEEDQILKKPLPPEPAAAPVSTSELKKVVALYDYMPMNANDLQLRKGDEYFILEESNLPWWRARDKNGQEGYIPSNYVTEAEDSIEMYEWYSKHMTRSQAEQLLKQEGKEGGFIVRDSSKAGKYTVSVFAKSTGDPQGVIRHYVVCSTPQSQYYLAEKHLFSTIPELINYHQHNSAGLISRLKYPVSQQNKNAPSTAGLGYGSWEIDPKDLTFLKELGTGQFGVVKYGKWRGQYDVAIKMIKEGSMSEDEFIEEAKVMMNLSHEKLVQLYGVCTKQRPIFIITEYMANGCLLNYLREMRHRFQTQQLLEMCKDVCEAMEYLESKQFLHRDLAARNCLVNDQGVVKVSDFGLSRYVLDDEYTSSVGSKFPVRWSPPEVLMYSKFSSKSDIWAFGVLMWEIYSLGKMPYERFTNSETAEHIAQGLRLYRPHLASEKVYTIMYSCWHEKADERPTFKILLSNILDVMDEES
Description: BTK recombinant protein: Invitrogen, Cat #PV3363;
Z′-LYTE® kinase test kit-tyrosine 1 peptide: Invitrogen, Cat #PV3190;
Z′-LYTE® biochemical assay employs a fluorescence resonance energy transfer (FRET)-based, coupled-enzyme format and is based on the differential sensitivity of phosphorylated and non-phosphorylated peptides to proteolytic cleavage. Both ends of the short peptide substrate are labeled with two fluorescent groups to form a FRET paired combination. In the primary reaction (the Kinase Reaction), the kinase transfers the γ-phosphate of ATP to a single […] residue on the short peptide substrate. In the secondary reaction (the development reaction), the non-phosphorylated short peptides were recognized and cleaved by a site-specific protease (the development reagent). Phosphorylated short peptides can resist such cleavage. Cleavage of short peptides can disrupt the donor (such as coumarin) and receptor fluorophores (fluorescein) on the short peptides, while the phosphorylated short peptides can maintain FRET. The calculation method of the ratio is as follows, and the ratio of the respective emission signals generated by the donor fluorophores emitted (after excitation at 400 nm) to the receptors is calculated. Emission signal ratio=emitted light by coumarin (445 nm)/emitted light by fluorescein (520 nm). If the FRET short peptide is phosphorylated (such as no kinase inhibitor), the emitted light ratio will remain in a lower level. If the FRET short peptide is non-phosphorylated (such as kinase inhibitor), the emitted light ratio will be in a higher level. In this way, the inhibitory effects of different compound inhibitors on BTK kinase activity would be distinguished.
The experiment was carried out according to the instructions of the Z′-LYTE® kinase test kit-tyrosine 1 peptide. Reagent preparation: 1.33× kinase buffer: 5× kinase buffer was diluted with water to 1.33× kinase buffer; an enzyme solution: the kinase was dissolved in 1.33× kinase buffer with the final working concentration being 3.32 nM; a short peptide solution: a short peptide stock solution (1 mM dissolved in DMSO) was dissolved in 1.33× kinase buffer with the final working concentration being 2 μM; Z′-LYTE Tyr01 phosphorylated short peptide solution, 0.6 μl of stock solution (1 mM dissolved in DMSO) was dissolved in 149.4 μl of 1.33× kinase buffer; an ATP solution: an ATP stock solution (10 mM aqueous solution) was dissolved in 1.33× kinase buffer with the final working concentration being 32 μM; a color-developing solution: color-developing solution B was dissolved in color-developing buffer with the final working concentration being 1× color-developing solution; 4× compound preparation: the compound was diluted in 3-fold gradient concentration to finally obtain 4% DMSO aqueous solution containing different concentrations of the compound, with the final working concentration being 3000, 1000, 333.33, 111.11, 37.04, 12.35, 4.12, 1.37 nM, 8 concentration points in total.
Specific steps of the experiment: In the experiment, there were three control groups, each with 8 replicate wells, which were C1 100% inhibition group (no ATP), C2 0% inhibition group (with ATP), and C3 100% phosphorylation group, respectively. 2.5 μl of serially diluted compound was added to each well of a 384-well plate, with double replicate wells, and 4% DMSO solution was added to wells C1, C2, and C3. After that, except for wells C3, 2.5 μl of BTK enzyme solution was added to each remaining well, which was left to stand at 4° C. for 30 minutes. After that, except for wells C3, 2.5 μl of short peptide solution was added to each well, and 5 μl of phosphorylated short peptide solution was added to each of wells C3. 2.5 μl of 1.33× kinase buffer was added to each of wells C1 and C3, and 2.5 μl of ATP solution was added to each of the remaining wells. The wells were centrifuged transiently, and the plate was shaken at 1000 rpm for 30 seconds to perform transient centrifuge. […]

[3] = tested on: rat arthritis model induced by type II collagen; experiment: Rat arthritis model induced by type II collagen (CIA), paw volume; assay type: in vivo; conditions: for inhibition ratio of area under the curve (IRAUC) of paw swelling: Day 13 to Day 19
Method: An appropriate amount of bovine type II collagen (CII, Chondrex (Redmond, WA, USA), Cat #20021) was weighed and dissolved in 0.1 mole of acetic acid (SPGC Sinopharm Chemical Reagent Co., Ltd (Shanghai, P.R. China), Cat #: 10000218.), which was formulated into a solution with a concentration of 6 mg/mL, stirred at 4° C. overnight, and added with an equal volume of Freund's incomplete adjuvant (Sigma-Aldrich. (St. Louis, MO, USA), Cat #: SLBW0366.), fully emulsified to prepare an emulsion with a CII concentration of 3 mg/mL.
Female Lewis rats were purchased from Beijing Vital River Laboratory Animal Technology Co., Ltd. (certificate number 20200928Aazz0619000579, initial body weight of 110-130 grams), and 6 rats were randomly selected as a normal group; and all of the remaining rats were immunized. In the first immunization on day 0, the rats except those in the normal group were anesthetized with isoflurane (Hebei Yipin Pharmaceutical Co., Ltd., Lot: C002170601.), and then disinfected with 75% alcohol, and 0.2 mL of emulsion was injected intradermally at the base of the tail thereof. A second challenge was carried out on day 7, and 0.2 mL of emulsion was intradermally injected using the same method. Once the animals developed symptoms on day 10, the incidence conditions thereof were closely monitored.
After grouping, the normal group was not administered, and the rats in the other groups were administered with the control vehicle, 0.25 mg/kg and 4 mg/kg of the reference GDC-0853, and each dose of compound 1 orally once a day until the end of the experiment.
The paw volume was measured on day 10 after immunization, and the left and right hind paw volumes (V) were measured every day after the paw volume increase was detected.
The arthrosis paw volumes of the left and right hind limbs of each animal were measured, and the average paw volume (APV) was calculated according to the following formula:
Average paw volume APV=(Vleft+Vright)/2
The average arthrosis paw volume of each animal before administration was used as the baseline (or considered […] of inflammation). The averaged paw swelling (APS) of each animal is calculated according to the following formula, wherein, APVd1 is the average paw volume of the animal administered on day 1, and APVdt is the average paw volume of the animal administered on day t:
The averaged paw swelling APSdt=(APVdt−APVd1)
The area under the curve (AUC) of the average paw volume swelling is the area under the curve of the arthrosis score swelling calculated by the trapezoid method, and the calculation formula is:
AUCAPS=½×(APSd1+APSd2)×(d2−d1)+½×(APSd2+APSd3)×(d3−d2)+ . . . +½×(APSdn+APSd(n-1))×(dn−dn-1).
Inhibition ratio IRAUC%=(Mean AUCAPS in the model group−AUCAPS in the drug-treated group)/(Mean AUCAPS in the model group−Mean AUCAPS in the normal group)×100%.

[4] = tested on: anti-IgD antibody-induced B cell activation in mice whole blood; experiment: In vivo efficacy of the inhibitory effect on BTK target: anti-IgD antibody-induced B cell activation in mice whole blood after oral dosing; design: species or system mouse; conditions: 20 mg/kg oral single dose, 16 h
Method: Objects: B cells in mice whole blood were induced and activated by the anti-IgD antibody, and the inhibitory effect of the compound of the present invention on B cell activation in vivo was studied, so as to determine the inhibitory effect of the compound of the present invention on the BTK target in vivo.
Methods: C57BL/6 mice (female, 18-20 g, purchased from Shanghai Lingchang Biotechnology Co., Ltd.) were grouped according to Table 1.
The animals of each group were administered, then were placed in CO2 for anesthesia at designated time points, blood samples were taken from […] via retro-orbital bleeding, and heparin was used for anticoagulation; 90 μL of whole blood was taken from mice of each group, and added to a 96 well culture plate, and anti-mouse IgD antibody (BIO-RAD, Cat #MCA4693) was added to each well to a final concentration of […] (respectively for each drug-treated group and anti-IgD antibody-inducted vehicle group); in addition, 90 μL of whole blood of mice in the vehicle group was taken and added to the 96-well culture plate, and PBS (phosphate buffer, GIBCO, Cat #C20012500BT) was added to each well to a final concentration of 0.01 μg/L (namely, the vehicle control group); Each group was mixed well and incubated in a 37° C./5% CO2 incubator for 4 hours. In addition, the blood of mice in the drug-treated group was centrifuged to separate plasma for blood concentration analysis.
B cell activation ratio=percentage of CD69^+CD19^+ double positive B cells/percentage of CD19^+ single positive B cells
Inhibition ratio=(percentage of B cell activation ratio in anti-IgD antibody-induced vehicle group−percentage of B cell activation ratio in drug-treated group)/(percentage of B cell activation ratio in anti-IgD antibody−induced vehicle group-percentage of B cell activation ratio in vehicle control group)×100%
All data are represented by mean±standard error. For the comparison between each drug-treated group and the anti-IgD antibody-induced vehicle group, p value was calculated by Graphpad Prism using one-way ANOVA analysis of variance and Dunnett's test, and for the comparison between each drug-treated group, p value was calculated by using unpaired t test.

Structure (SMILES): C[C@H]1CNC[C@H](C)N1c1ccc(Nc2cc(-c3ccnc(-n4ccn5c6c(cc5c4=O)CC(C)(C)C6)c3CO)cn(C)c2=O)nc1 [Compound 5, 2-(5-((5-((2S,6S)-2,6-dimethylpiperazin-1-yl)pyridin-2-yl)amino)-3′-(hydroxymethyl)-1-methyl-6-oxo-1,6-dihydro-[3,4′-bipyridin]-2′-yl)-7,7-dimethyl-7,8-dihydro-2H-cyclopenta[4,5]pyrrolo[1,2-a]pyrazin-1(6H)-one]
- MLM, percentage of the remaining compound after 30 minutes of incubation [1]: 67.5%
- RLM, percentage of the remaining compound after 30 minutes of incubation [2]: 95.4%
- IC50 (BTK recombinant protein): 8 nM

Structure (SMILES): C[C@H]1CN(C2COC2)CCN1c1ccc(Nc2cc(-c3ccnc(N4CCn5c(cc6c5CC(C)(C)C6)C4=O)c3CO)cn(C)c2=O)nc1 [GDC-0853, fenebrutinib, reference compound]
- effect on paw volume compared with vehicle control group ([3]; 0.25 mg/kg oral QD): no improvement effect
- inhibition ratio of area under the curve (IRAUC) of paw swelling ([3]; 0.25 mg/kg oral QD): −6.4%
- effect on paw volume compared with vehicle control group ([3]; 4 mg/kg oral QD): significantly reduced
- inhibition ratio of area under the curve (IRAUC) of paw swelling ([3]; 4 mg/kg oral QD): 144.7%
- Inhibition ratio (%) on B cell activation [4]: 9%
- B cell activation ratio (the population of activated B cells in total B cells) ([4]; mean ± standard error): 29.3 ± 6.7
- MLM, percentage of the remaining compound after 30 minutes of incubation [1]: 76.3%
- RLM, percentage of the remaining compound after 30 minutes of incubation [2]: 81.0%

Structure (SMILES): C[C@H]1CN(C2COC2)C[C@H](C)N1c1ccc(Nc2cc(-c3ccnc(-n4ncn5c6c(cc5c4=O)CC(C)(C)C6)c3CO)cn(C)c2=O)nc1 [Compound 4, 2-(5-((5-((2S,6S)-2,6-dimethyl-4-(oxetan-3-yl)piperazin-1-yl)pyridin-2-yl)amino)-3′-(hydroxymethyl)-1-methyl-6-oxo-1,6-dihydro-[3,4′-bipyridin]-2′-yl)-7,7-dimethyl-7,8-dihydro-2H-cyclopenta[4,5]pyrrolo[1,2-d][1,2,4]triazin-1(6H)-one]
- MLM, percentage of the remaining compound after 30 minutes of incubation [1]: 90.9%
- RLM, percentage of the remaining compound after 30 minutes of incubation [2]: 97.4%
- IC50 (BTK recombinant protein): 5 nM
